pKi: −log10 of the molar value.
Molecular target: T1, human M2 muscarinic receptor (Homo sapiens, UniProt P08172)
T1 construct: expressed in transfected cells
T1 sequence (P08172 1-466): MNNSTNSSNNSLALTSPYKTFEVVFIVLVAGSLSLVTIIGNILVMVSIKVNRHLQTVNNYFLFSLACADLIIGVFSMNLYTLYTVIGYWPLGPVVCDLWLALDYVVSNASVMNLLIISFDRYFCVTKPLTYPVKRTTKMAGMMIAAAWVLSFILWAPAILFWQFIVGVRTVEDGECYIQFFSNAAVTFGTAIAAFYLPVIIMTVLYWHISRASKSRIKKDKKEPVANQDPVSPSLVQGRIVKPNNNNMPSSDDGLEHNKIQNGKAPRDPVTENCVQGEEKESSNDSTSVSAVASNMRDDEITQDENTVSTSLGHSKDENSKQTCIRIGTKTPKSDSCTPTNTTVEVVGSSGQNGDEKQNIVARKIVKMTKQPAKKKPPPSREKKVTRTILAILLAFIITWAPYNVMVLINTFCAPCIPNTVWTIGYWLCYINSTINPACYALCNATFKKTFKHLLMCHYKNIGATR
Test: Radioligand binding assay for muscarinic receptors (hM2)
Conditions: [3H]-NMS displacement, CHO cell membranes
Protocol: The cells were grown in a 5% CO2, 37° C. incubator and lifted with 2 mM EDTA in dPBS. Cells were collected by 5 minute centrifugation at 650×g, and cell pellets were either stored frozen at −80° C. or membranes were prepared immediately for use. For membrane preparation, cell pellets were resuspended in lysis buffer and homogenized with a Polytron PT-2100 tissue disrupter (Kinematica AG; 20 seconds×2 bursts). Crude membranes were centrifuged at 40,000×g for 15 minutes at 4° C. The membrane pellet was then resuspended with re-suspension buffer and homogenized again with the Polytron tissue disrupter. […] All membranes were stored frozen in aliquots at −80° C. or used immediately.
The membranes were briefly homogenized using a Polytron tissue disruptor (10 seconds) prior to assay plate addition. […] Filter plates were rinsed three times with wash buffer (10 mM HEPES) to remove unbound radioactivity. […] Binding data were analyzed by nonlinear regression analysis with the GraphPad Prism Software package (GraphPad Software, Inc., San Diego, Calif.) using the one-site competition model.

## COc1cc(NC(=O)CCN2CCC(OC(=O)Nc3ccccc3-c3ccccc3)CC2)c(Cl)cc1CNC[C@H](O)c1ccc(O)c2[nH]c(=O)ccc12 [compound of formula I, biphenyl-2-ylcarbamic acid 1-[2-(2-chloro-4-{[(R)-2-hydroxy-2-(8-hydroxy-2-oxo-1,2-dihydroquinolin-5-yl)ethylamino]methyl}-5-methoxyphenylcarbamoyl)ethyl]piperidin-4-yl ester]
  pKi: > 8.00

Reference: patent US8101766B2, “Crystalline form of a biphenyl compound” (Theravance, Inc., priority 2004, dated 2012)
